From US8877161B2 (priority 2011, dated 2014)
Like-named read-outs stand apart in the source and are kept apart here. Marks after values point to notes of the source that are not given here. Where a SMILES comes first, the peptide text is derived from it.

Experiments:
Type in all cases: binding
[1] = molecular target: cholera toxin B subunit (CTB); ligand GD1b (Vibrio cholerae serotype O1, UniProt P01556)
[2] = system: AbGM2 (GM2/AbGM2); details: lot # D710-2; for Inhibition percent at IC50AbGM1-1: GM2/AbGM2: peptide at its IC50 AbGM1-1
[3] = molecular target: cholera toxin B subunit (CTB); ligand Lipid AP (Vibrio cholerae serotype O1, UniProt P01556)
[4] = system: rabbit anti-GM1 antibodies (AbGM1); details: for IC50: AbGM1-1 lot # 431A; for Inhibition percent at IC50AbGM1-1: GM1/AbGM1-1 / Inhibition percent at IC50 AbGM1-1: AbGM1-3 / Inhibition percent at IC50 AbGM1-1: AbeGM1-4 / Inhibition percent at IC50 AbGM1-1: AbGM1-5 / Inhibition percent at IC50 AbGM1-1: AbGM1-1 / Inhibition percent at IC50 AbGM1-1: AbGM1-2: peptide at its IC50 AbGM1-1; for Inhibition percent at IC50 AbGM1-1: AbGM1-3: antibody lot # 101J; for Inhibition percent at IC50 AbGM1-1: AbeGM1-4: antibody lot # 104H; for Inhibition percent at IC50 AbGM1-1: AbGM1-1: antibody lot # 431A, means of 4 values
[5] = system: AbGD1b (GD1b/AbGD1b); details: lot # D710-6; for Inhibition percent at IC50AbGM1-1: GD1b/AbGD1b: peptide at its IC50 AbGM1-1
[6] = molecular target: cholera toxin B subunit (CTB); ligand LOSGM1 (Vibrio cholerae serotype O1, UniProt P01556)
[7] = molecular target: cholera toxin B subunit (CTB); ligand GM1 (Vibrio cholerae serotype O1, UniProt P01556)
[8] = system: AbGM4 (GM4/AbGM4); details: lot # GMR6; for Inhibition percent at IC50AbGM1-1: GM4/AbGM4: peptide at its IC50 AbGM1-1
[9] = system: AbSGPG (SGPG/AbSGPG); details: lot # D710-5; for Inhibition percent at IC50AbGM1-1: SGPG/AbSGPG: peptide at its IC50 AbGM1-1
[10] = system: AbGD3 (GD3/AbGD3); details: peptide at its IC50 AbGM1-1; lot # R24
[11] = molecular target: cholera toxin B subunit (CTB); ligand fucosyl-GM1 (F-GM1) (Vibrio cholerae serotype O1, UniProt P01556)
[12] = system: AbGD1a (GD1a/AbGD1a); details: lot # 109H; for Inhibition percent at IC50AbGM1-1: GD1a/AbGD1a: peptide at its IC50 AbGM1-1
[13] = system: AbF-GM1 (F-GM1/AbF-GM1); details: lot # G351; for Inhibition percent at IC50AbGM1-1: F-GM1/AbF-GM1: peptide at its IC50 AbGM1-1
[14] = antibody lot # 105T, dilution 1:500
[15] = antibody lot # 431B, dilution 1:500
[16] = treatment with 500 pmol/mL of PGM1-2

Chain of cholera toxin B subunit (CTB); ligand fucosyl-GM1 (F-GM1) (P01556 22-124 limits assumed): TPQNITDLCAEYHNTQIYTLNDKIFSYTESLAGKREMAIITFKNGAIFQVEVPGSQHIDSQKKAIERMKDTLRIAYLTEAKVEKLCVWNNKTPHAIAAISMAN
Chain of cholera toxin B subunit (CTB); ligand LOSGM1 (P01556 22-124 limits assumed): as above
Chain of cholera toxin B subunit (CTB); ligand Lipid AP (P01556 22-124 limits assumed): as above
Chain of cholera toxin B subunit (CTB); ligand GM1 (P01556 22-124 limits assumed): as above
Chain of cholera toxin B subunit (CTB); ligand GD1b (P01556 22-124 limits assumed): as above

Compound | Inhibition percent at IC50 GM1: GD1b [1] [%] | Inhibition percent at IC50AbGM1-1: GM2/AbGM2 [2] [%] | Inhibition percent at IC50 GM1: Lipid AP [3] [%] | IC50 ([4]; Table 4, dilution 1:500) [nM] | IC50 ([4]; Table 5) [nM] | Inhibition percent at IC50AbGM1-1: GM1/AbGM1-1 ([4]; Table 5, lot # 431A) | Inhibition percent at IC50 AbGM1-1: AbGM1-3 ([4]; dilution 1:500) | Inhibition percent at IC50 AbGM1-1: AbeGM1-4 ([4]; dilution 1:500) | Inhibition percent at IC50 AbGM1-1: AbGM1-5 [4, 14] [%] | Inhibition percent at IC50 AbGM1-1: AbGM1-1 ([4]; dilution 1:500) | Inhibition percent at IC50 AbGM1-1: AbGM1-2 [4, 15] [%] | Inhibition percent at IC50AbGM1-1: GD1b/AbGD1b [5] [%] | Inhibition percent at IC50 GM1: LOSGM1 [6] [%] | IC50 GM1 [7] [nM] | Inhibition percent at IC50AbGM1-1: GM4/AbGM4 [8] [%] | Inhibition percent at IC50AbGM1-1: SGPG/AbSGPG [9] [%] | Inhibition percent at IC50AbGM1-1: GD3/AbGD3 [10] [%] | Inhibition percent at IC50 GM1: F-GM1 [11] [%] | Inhibition percent at IC50AbGM1-1: GD1a/AbGD1a [12] [%] | Inhibition percent at IC50AbGM1-1: F-GM1/AbF-GM1 [13] [%] | also measured
CC(C)C[C@H](NC(=O)[C@H](CC(N)=O)NC(=O)[C@@H]1CCCN1C(=O)[C@H](Cc1ccccc1)NC(=O)[C@H](Cc1c[nH]c2ccccc12)NC(=O)[C@@H](NC(=O)[C@H](CCCCN)NC(=O)[C@H](Cc1c[nH]c2ccccc12)NC(=O)[C@H](CO)NC(=O)[C@@H](N)C(C)C)[C@@H](C)O)C(=O)N[C@@H](C)C(=O)N[C@H](C(=O)O)C(C)C [PGM1-1, VSWKTWFPNLAV] (H-VSWKTWFPNLAV-OH; N-terminus and C-terminus assumed) | 39.9 | 11.2 | 0 | 273 | 273 | 50^b percent | 0% | 72.1% | 44.6 | 50^a percent | 27.1 | 32.1 | 50.8 | 38.0 | 0 | 0 | 0 | 45.8 | 0 | 42.1 | –
CSCC[C@H](NC(=O)[C@H](CO)NC(=O)[C@@H]1CCCN1C(=O)[C@H](Cc1ccccc1)NC(=O)[C@H](Cc1c[nH]c2ccccc12)NC(=O)[C@H](CCCCN)NC(=O)[C@H](Cc1c[nH]cn1)NC(=O)[C@H](Cc1ccccc1)NC(=O)[C@@H]1CCCN1C(=O)[C@H](CO)NC(=O)[C@@H](N)Cc1ccc(O)cc1)C(=O)N[C@@H](Cc1c[nH]cn1)C(=O)O [PGM1-2, YSPFHKWFPSMH] (H-YSPFHKWFPSMH-OH; N-terminus and C-terminus assumed) | 21.9 | – | 0 | – | – | – | 65.7^a percent | 15.1^a percent | – | 0^a percent | – | – | 47.9 | 46.1 | – | – | – | 52.1 | – | – | Inhibition percent: GM2/AbGM2 [2, 16]: 0^b percent; Inhibition percent: GM1/AbGM1-1 ([4]; Table 5, treatment with 500 pmol/mL of PGM1-2, lot # 431A): 0^b percent; Inhibition percent: AbGM1-5 ([4]; treatment with 500 pmol/mL of PGM1-2, antibody lot # 105T, dilution 1:500): 0^b percent; Inhibition percent: AbGM1-2 ([4]; treatment with 500 pmol/mL of PGM1-2, antibody lot # 431B, dilution 1:500): 32.1^b percent; Inhibition percent: GD1b/AbGD1b [5, 16]: 23.6^b percent; Inhibition percent at IC50 GM1: GM1 [7]: 50%; Inhibition percent: GM4/AbGM4 [8, 16]: 0^b percent; Inhibition percent: SGPG/AbSGPG [9, 16]: 0^b percent; Inhibition percent: GD1a/AbGD1a [12, 16]: 0^b percent; Inhibition percent: F-GM1/AbF-GM1 [13, 16]: 0^b percent
CC[C@H](C)[C@H](N)C(=O)N1CCC[C@H]1C(=O)N[C@@H](CCC(N)=O)C(=O)N[C@H](C(=O)N[C@@H](Cc1c[nH]c2ccccc12)C(=O)N[C@@H](CCCNC(=N)N)C(=O)N[C@@H](CC(=O)O)C(=O)N[C@@H](Cc1c[nH]c2ccccc12)C(=O)N[C@@H](Cc1ccccc1)C(=O)N[C@@H](CCCCN)C(=O)N[C@@H](CC(C)C)C(=O)N1CCC[C@H]1C(=O)O)C(C)C [PGM1-3, IPQVWRDWFKLP] (H-IPQVWRDWFKLP-OH) | 37.9 | 0 | 0 | 75.6 | 75.6 | 50% | 42.5% | 30.3% | 59.1 | 50% | 62.1 | 0 | 52.1 | 9.6 | 0 | 0 | 0 | 43.9 | 0 | 0 | Inhibition percent at IC50 GM1: GM1 [7]: 50%
CC(C)C[C@H](NC(=O)[C@H](CCCCN)NC(=O)[C@@H](NC(=O)[C@H](Cc1ccccc1)NC(=O)[C@H](Cc1c[nH]c2ccccc12)NC(=O)[C@H](C)NC(=O)[C@@H]1CCCN1C(=O)[C@@H](N)Cc1ccccc1)[C@@H](C)O)C(=O)N[C@@H](Cc1ccc(O)cc1)C(=O)N1CCC[C@H]1C(=O)N[C@@H](CCCNC(=N)N)C(=O)N[C@H](C(=O)O)[C@@H](C)O [PGM1-4, FPAWFTKLYPRT] (H-FPAWFTKLYPRT-OH) | 18.9 | 0 | 0 | 175 | 175 | 50% | 12.6% | 33.9% | 0 | 50% | 70.1 | 12.1 | 51.1 | 77.4 | 0 | 0 | 0 | 62.1 | 0 | 25.7 | Inhibition percent at IC50 GM1: GM1 [7]: 50%
CC[C@H](C)[C@H](NC(=O)[C@@H](N)CCC(N)=O)C(=O)N[C@@H](CC(N)=O)C(=O)N[C@H](C(=O)N[C@@H](C)C(=O)N[C@@H](CCCCN)C(=O)N[C@@H](Cc1c[nH]c2ccccc12)C(=O)N[C@@H](Cc1c[nH]c2ccccc12)C(=O)N[C@@H](CCCCN)C(=O)N[C@H](C(=O)N[C@@H](Cc1c[nH]cn1)C(=O)N[C@@H](Cc1ccccc1)C(=O)O)[C@@H](C)O)[C@@H](C)O [PGM1-5, QINTAKWWKTHF] (H-QINTAKWWKTHF-OH) | 39.8 | 6.5 | 0 | 481 | 481 | 50% | 12.1% | 0% | 32.9 | 50% | 0 | 0 | 50.0 | 34.4 | 0 | 0 | 0 | 52.1 | 0 | 0 | Inhibition percent at IC50 GM1: GM1 [7]: 50%
DASKALRSSGMP [PGM1-6] | – | 0 | – | 293 | 293 | 50% | 0% | 55.1% | 18.7 | 50% | 45.1 | 8.9 | – | – | 0 | 0 | 0 | – | 0 | 23.4 | Inhibition percent: GD1b [1]: 0^d percent; Inhibition percent: Lipid AP [3]: 0^d percent; Inhibition percent: LOSGM1 [6]: 0^d percent; Inhibition percent at IC50 GM1: GM1 [7]: 0%; Inhibition percent: F-GM1 [11]: 0^d percent
